According to ChEMBL document CHEMBL3576867, “Cytotoxic activity of rearranged drimane meroterpenoids against colon cancer cells via down-regulation of β-catenin expression” (J Nat Prod, 2015):
Activity calls are given as the source filed them. No cut-off for these calls is given here.

Key:
HEK293 [1] = assay: Inhibition of Wnt/beta-catenin pathway in HEK293 cells assessed as decrease in Wnt3a-CM-induced beta-catenin response regulated transcription level at 1.5 to 6 uM after 15 hrs by TOPflash reporter gene assay; assay type: cell-based; conditions: Homo sapiens
HEK293 [2] = assay: Inhibition of Wnt/beta-catenin pathway in HEK293 cells assessed as downregulation of Wnt3a-CM-activated beta-catenin expression at 10 to 40 uM after 15 hrs by Western blot analysis in presence of 5-epi-nakijinone; assay type: cell-based; conditions: Homo sapiens
SW480 [3] = assay: Cytotoxicity against human SW480 cells assessed as growth inhibition after 48 hrs by Cell-Titer-Glo assay; assay type: functional, cell-based; conditions: SW480, 48 h
HCT-116 [4] = assay: Cytotoxicity against human HCT116 cells assessed as growth inhibition after 48 hrs by Cell-Titer-Glo assay; assay type: functional, cell-based; conditions: HCT-116, 48 h
HEK293 [5] = assay: Inhibition of Wnt/beta-catenin pathway in HEK293 cells assessed as decrease in Wnt3a-CM-induced beta-catenin response regulated transcription level at 10 to 40 uM after 15 hrs by TOPflash reporter gene assay; assay type: cell-based; conditions: Homo sapiens
HEK293 [6] = assay: Inhibition of Wnt/beta-catenin pathway in HEK293 cells assessed as downregulation of Wnt3a-CM-activated beta-catenin expression at 10 to 40 uM after 15 hrs by Western blot analysis; assay type: cell-based; conditions: Homo sapiens
SW480 [7] = assay: Cytotoxicity against human SW480 cells assessed as growth inhibition at >20 uM after 48 hrs by Cell-Titer-Glo assay; assay type: functional, cell-based
HCT-116 [8] = assay: Cytotoxicity against human HCT116 cells assessed as growth inhibition at >20 uM after 48 hrs by Cell-Titer-Glo assay; assay type: functional, cell-based
HEK293 [9] = assay: Inhibition of Wnt/beta-catenin pathway in HEK293 cells assessed as decrease in Wnt3a-CM-induced beta-catenin response regulated transcription level at 10 to 40 uM after 15 hrs by TOPflash reporter gene assay in presence of 5-epi-nakijinone; assay type: cell-based; conditions: Homo sapiens
HEK293 [10] = assay: Inhibition of Wnt/beta-catenin pathway in HEK293 cells assessed as downregulation of Wnt3a-CM-activated beta-catenin expression at 1.5 to 6 uM after 15 hrs by Western blot analysis; assay type: cell-based; conditions: Homo sapiens
SW480 [11] = assay: Cytotoxicity against human SW480 cells assessed as growth inhibition at >20 uM after 48 hrs by Cell-Titer-Glo assay in presence of 5-epi-nakijinone; assay type: functional, cell-based
HCT-116 [12] = assay: Cytotoxicity against human HCT116 cells assessed as growth inhibition at >20 uM after 48 hrs by Cell-Titer-Glo assay in presence of 5-epi-nakijinone; assay type: functional, cell-based

Q: How did the inhibition (HEK293 [1]) turn out when C=C1CCC[C@H]2[C@](C)(CC3=C(O)C(=O)C=C(OCC)C3=O)[C@@H](C)CC[C@@]12C was run?
A: Active

Q: And the inhibition (HEK293 [2])?
A: Active

Q: What about the IC50 (SW480 [3]) of the same compound?
A: 3.24 µM

Q: What about the IC50 (HCT-116 [4]) of the same compound?
A: 2.95 µM

Q: With C=C1CCC[C@H]2[C@](C)(Cc3c(O)c(OC)cc4nc(C)oc34)[C@@H](C)CC[C@@]12C as the compound, how does the inhibition (HEK293 [5]) read?
A: Active

Q: And the inhibition (HEK293 [6])?
A: Active

Q: What about the “growth inhibition (GI)” value (SW480 [7]) of the same compound?
A: Active

Q: And the “growth inhibition (GI)” value (HCT-116 [8])?
A: Active

Q: With C=C1CCC[C@H]2[C@](C)(CC3=C4OC(C)(C)N=C4C=C(OC)C3=O)[C@@H](C)CC[C@]12C as the compound, how does the inhibition (HEK293 [9]) read?
A: Active

Q: And the inhibition (HEK293 [10])?
A: Active

Q: And the “growth inhibition (GI)” value (SW480 [11])?
A: Active

Q: What about the “growth inhibition (GI)” value (HCT-116 [12]) of the same compound?
A: Active
